Results reported in patent US20220127298A1, “THERMOSPOROTHRIX HAZAKENSIS-DERIVED ANTIBACTERIALLY ACTIVE SUBSTANCE” (KENNAN EISEI KOGYO CO., LTD., priority 2019, published 2022).
Values after ≈ are worked out from the molar mass of the structure shown.

Key:
Assay type in all cases: cell-based
[1] = test system: Bacillus subtilis NBRC 3134^T; assay: Heat resistance test A, antibacterial activity as index; conditions: 1000 γ solution, pH adjusted to 9, 98° C. for 5 min; FIG. 4-1
Method: (§1) Examples of a typical test for measuring the stability of a compound include pH stability test, as well as heat resistance test, and storage test. This information is also regarded as important in evaluating the compound as described above. Using the sample of HK-1 prepared in the above “3. Antibacterial activity test in changing pH”, experiments were carried out to examine whether the compound is stable or not using G. stearothermophilus and B. subtilis guided by the antibacterial activity as the index.
(§2) Three hundred (300) μL of the 1000 γ HK-1 solution (pH 9, and pH not adjusted) prepared in the above “3. Antibacterial activity test in changing pH” was dispensed into a 1 mL microtube. The opening of the tube was closed hermetically with parafilm and heated in the bath at 98° C. for 5 min. An assay was performed using the culture medium for assaying antibacterial activity prepared in “3. Antibacterial activity test in changing pH” above.

[2] = test system: Geobacillus stearothermophilus ATCC 7953; assay: as above; conditions: 1000 γ solution, pH adjusted to 9, 98° C. for 5 min; FIG. 4-1
Method: as §1, §2

[3] = test system: Geobacillus stearothermophilus 111499 MERCK (ATCC 7953); assay: Measurement of minimum inhibitory concentration, dilution method with liquid culture medium; conditions: ATCC7953, LB liquid medium, 60° C., 135 rpm, 18 hours, visual observation and OD600
Description: The minimum inhibitory concentration (MIC) is one of the antibiotic susceptibility tests, and means the minimum concentration of an antimicrobial substance at which the visible growth of a microorganism can be inhibited. In the research field, the MIC measurement is used, for example, to compare the effects of a new antibiotic substance and a conventional substance, or to examine actions on several strains, and is regarded as an important criterion for evaluating antibiotic substances. The MIC of “HK-1” which was obtained hereunder as the antibacterial active substance was measured using the dilution method with a liquid culture medium.
A piece of ice out of a glycerol stock of G. stearothermophilus stored at −80° C. was planarly inoculated on the LB agar culture medium with a toothpick. This was incubated at 60° C. for 18 hours. One (1) cm^2 of the culture medium was excavated with a toothpick, placed into a long test tube containing 10 mL of a liquid LB culture medium, and subjected to a shaking culture at 60° C., and 300 rpm, for 18 hours. The culture solution was diluted with sterile water to about McF standard No. 1.
Two (2) mg of HK-1 was weighed out into a 2 mL Eppendorf tube using an electric balance. To this Eppendorf tube, 2 mL of methanol was added to dissolve the HK-1 to form a […] solution. The solution was filtrated through a sterilized […] filter. […]

[4] = test system: Geobacillus stearothermophilus ATCC 7953; assay: Antibacterial spectrum test, paper disk assay; conditions: 50 μL of 1000 γ solution in methanol, LB agar, 60° C., 18 hours
Method: (§3) The antibacterial activity of HK-1 was assayed using a paper disk against the following bacterial bodies. A piece of ice was taken out of a glycerol stock of G. stearothermophilus stored at -80° C. and […] inoculated on the LB agar culture medium (see Example 1) with a toothpick. This was incubated at 60° C. for 18 hours. After the incubation, 1⁄2 platinum loop of the culture was harvested and suspended in 500 μL of sterile water. The bacterial suspension was diluted 10-fold with sterile water. Onto a LB agar culture medium, 100 μL of the diluted suspension was dropped and spread until it was dried up. A piece of paper disk was placed on a filter paper, onto which 50 μL of a HK-1 solution adjusted to 1000 γ with methanol was dropped and dried. Then the disk was placed on the agar culture medium coated with the bacterial body. After incubation at 60° C. for 18 hours, the diameter of the inhibition ring was measured.

[5] = test system: Escherichia coli NBRC 102203^T; assay: Antibacterial spectrum test, paper disk assay; conditions: 50 μL of 1000 γ solution in methanol, LB agar, 37° C., 18 hours
Method: as §3, with “measured. Assays were performed in the same manner as in 1 above, except that the incubation temperature was changed to 37° C.” for “measured.”

[6] = test system: Bacillus subtilis NBRC 3134^T; assay: Antibacterial spectrum test, paper disk assay; conditions: 50 μL of 1000 γ solution in methanol, LB agar, 37° C., 18 hours
Method: as §3, with “measured. Assays were performed in the same manner as in 1 above, except that the incubation temperature was changed to 37° C.” for “measured.”

Structure (SMILES): COc1cc(OOc2cc(OC)c3c(c2-c2c(O)c(Cl)c(C)c4c2C(O)c2c(Cl)c(O)cc(O)c2C4=O)C(OC2OC(C)C(O)C2O)c2c(Cl)c(OC)c(Cl)c(C)c2C3=O)c(-c2c(O)c(Cl)c(C)c3c2C(O)c2c(Cl)c(O)cc(O)c2C3=O)c2c1C(=O)c1c(C)c(Cl)c(OC)c(Cl)c1C2OC1OC(C)C(O)C1O (stereo not drawn) [HK-1]
- antibacterial effect after heating at high temperature [1]: the antibacterial effect was not lost
- antibacterial effect after heating at high temperature [2]: the antibacterial effect was not lost
- MIC [3]: 0.78 µg/mL (≈ 0.474 µM)
- inhibition ring diameter [4]: 34.0 mm
- inhibition ring diameter [5]: 14.0 mm
- inhibition ring diameter [6]: 32.0 mm
